From patent US9988416B2, “Alkynyl nucleoside analogs as inhibitors of human rhinovirus” (NOVARTIS AG, priority 2016, dated 2018)

Experiments:
[1] = biological target: T1, Human Mitochondrial RNA polymerase (POLRMT) (Homo sapiens, UniProt O00411); test: Human mitochondrial RNA polymerase single nucleotide incorporation assay; assay type: biochemical; settings: 500 μM nucleoside triphosphate, 5 min at RT
T1 construct: Purified full length POLRMT (Enzymax, USA); purchased Enzymax
Procedure: Human Mitochondrial RNA Polymerase Assay.
Human mitochondrial RNA polymerase (POLRMT) single nucleotide Incorporation assay was adapted from Arnold et al. (Sensitivity of mitochondrial transcription and resistance of RNA polymerase II dependent nuclear transcription to antiviral ribonucleosides. PloS Pathogen 8(11):e1003030.). Briefly, elongation complexes were formed by incubating 500 nM POLRMT with 250 nM annealed DNA template/RNA primer duplex, in assay buffer (25 mM Tris-HCl, pH 8, 50 mM KCl, 10 mM MgCl2, 1 mM dithiothreitol, 0.2 U/μL RNasin) for 1.5 min at room temperature (RT), followed by rapid mixing with 500 μM nucleoside triphosphate substrate or inhibitor. Purified full length POLRMT (Enzymax, USA) was stored in 10 mM Tris-HCl (pH 8.0), 1 mM DTT, 100 mM NaCl and 20% glycerol. The volume of POLRMT added to any reaction was always less than or equal to one-tenth the total volume. Primer-template consisted of a 5′-FAM labeled […] RNA oligonucleotide primer SEQ. ID. NO. 2 (5′-UUUUGCCGCGCC-3′) annealed to the appropriate 18-mer DNA template to allow single addition of A, C, G or U ribonucleotide (Arnold et al. 2012). […] Electrophoresis was performed in 1×TBE buffer at 600 V. Gels were visualized with a Typhoon Imager under fluorescence detection mode and quantified with the Image Quant TL Software (GE Healthcare, Piscataway, N.J.). […]

HRV16 = test: HRV cytopathic effect (CPE) assay; assay type: cell-based; settings: Human rhinovirus sp., H1-HeLa cells, 72 h at 33° C., CellTiter-Glo, read-out: Activity on HRV strains and other viruses: HRV16
Procedure: (§1) HRV Cytopathic Effect (CPE) Assay.
(§2) Compounds were serially diluted in DMSO in half-logarithmic steps starting from 5 mM. Of each dilution, 0.5 μL were transferred to the assay plates. H1-HeLa cells were added to the assay-ready compound plates in 45 μL DMEM supplemented with 0.1% BSA (Gibco, 15260), 1× penicillin/streptomycin solution (CellGro/Mediatech, Manassas, Va.; 30-002-CI), and 1× non-essential amino acids (CellGro; 25-025-CI) at 5000 cells/well into triplicate 384-well plates and incubated at 33° C. for 6 hours. Control wells included DMSO alone (100% inhibition) and DMSO plus virus (0% inhibition). After 6 h incubation at 33° C., 5 μL of human rhinovirus stock was added at an MOI that effectively kills 99% of cells within 72 hours. Plates were then incubated for 72 h at 33° C. Cell viability was determined using the CellTiter-Glo® Luminescent Cell Viability Assay (Promega, G7573) according to the manufacturer's protocol and a POLARstar Omega Luminometer (BMG Labtech).

HRV86 = test: HRV cytopathic effect (CPE) assay; assay type: cell-based; settings: Human rhinovirus sp., H1-HeLa cells, 72 h at 33° C., CellTiter-Glo, read-out: Activity on HRV strains and other viruses: HRV86
Procedure: as §1, §2

HRV39 = test: HRV cytopathic effect (CPE) assay; assay type: cell-based; settings: Human rhinovirus sp., H1-HeLa cells, 72 h at 33° C., CellTiter-Glo, read-out: Activity on HRV strains and other viruses: HRV39
Procedure: as §1, §2

HRV10 = test: HRV cytopathic effect (CPE) assay; assay type: cell-based; settings: Human rhinovirus sp., H1-HeLa cells, 72 h at 33° C., CellTiter-Glo, read-out: Activity on HRV strains and other viruses: HRV10
Procedure: as §1, §2

HRV14 = test: HRV cytopathic effect (CPE) assay; assay type: cell-based; settings: Human rhinovirus sp., H1-HeLa cells, 72 h at 33° C., CellTiter-Glo, read-out: Activity on HRV strains and other viruses: HRV14
Procedure: as §1, §2

HRV29 = test: HRV cytopathic effect (CPE) assay; assay type: cell-based; settings: Human rhinovirus sp., H1-HeLa cells, 72 h at 33° C., CellTiter-Glo, read-out: Activity on HRV strains and other viruses: HRV29
Procedure: as §1, §2

Chikungunya virus = test: Activity on Chikungunya virus; assay type: cell-based; settings: read-out: Activity on HRV strains and other viruses: Chikungunya virus
MT4 = MT4 cytotoxicity assay; assay type: cell-based; settings: N = 2; 3 or 5 days at 37° C., CellTiter-Glo
Procedure: (§3) MT4 and PC3 Cytotoxicity Assay. Compounds were serially diluted in DMSO in half-logarithmic steps starting from 10 mM. 0.5 μL of serially diluted compound was transferred to the assay plates (Greiner cat#781080). Cells were added to the assay-ready compound plates in 50 μL of RPMI 1640 medium supplemented with 10% FBS (NCS Lot OS-161071), 1× penicillin/streptomycin solution (CellGro/Mediatech, Manassas, Va.; 30-002-CI), and incubated at 37° C. for 3 or 5 days. Control wells included DMSO alone (100% inhibition). Cell viability was determined using the CellTiter-Glo® Luminescent Cell Viability Assay (Promega, G7573) according to the manufacturer's protocol and a POLARstar Omega Luminometer (BMG Labtech).

PC3 = PC3 cytotoxicity assay; assay type: cell-based; settings: 3 or 5 days at 37° C., CellTiter-Glo
Procedure: as §3

HepG2 [2] = test: Cox/SDH ratio assay in HepG2 cells; assay type: cell-based; settings: Cellular assays (MP-Nuc); concentration giving Cox/SDH ratio <0.5, HepG2 cells
Dengue virus (PBMCs) = test: Activity on Dengue virus in PBMCs; assay type: cell-based; settings: PBMC, read-out: Activity on HRV strains and other viruses: Dengue virus (PBMCs)
K562 = test: Cytotoxicity (CC50 assay) in K562; assay type: cell-based; settings: N = 3; CC50, 72 hours, Cell-Titer Glo
Procedure: (§4) Cytotoxicity (CC50 Assay) in HepG2 & K562 White TC grade Greiner 384-well assay plates were stamped with 0.5 ul of compound in 90% DMSO/10% water. HepG2 cells were trypsinized and collected into 50 ml falcon tube. K562 suspension cells were collected in 50 ml falcon tube. Both tubes containing cells were spun in benchtop centrifuge at 1200 rpm for 5 mins. The supernatant was discarded and the cell pellet was re-suspended in fresh culture media (HepG2: DMEM:F12 mix+10% FBS+1% Pen/Strep & K562: IMDM+10% FBS+1% Pen-Strep). Cells were counted using a hemocytometer and cells were diluted to a working suspension of 50,000 cells/ml for HepG2, and 20,000 cells/ml for K562. 50 ul of cells suspension was added to each well of 384-assay plate. Assay plates were incubated at 37° C., 5% CO2, 90% humidity incubator for 72 hours. Assay plates were then treated with 25 ul of Promega's Cell-Titer Glo® reagent, and incubated at room temperature for 10 mins. Plates were read on PolarStar-Omega using the Luminescence setting and a Gain of 3300.

HepG2 [3] = test: Cytotoxicity (CC50 assay) in HepG2; assay type: cell-based; settings: N = 7+; CC50, 72 hours, Cell-Titer Glo
Procedure: as §4

HRV15 (c-type) = test: HRV replicon assay (Group C replicon); assay type: cell-based; settings: Human rhinovirus sp., HRV15, H1-HeLa, read-out: Activity on HRV strains and other viruses: HRV15 (c-type)
Procedure: This assay was based on the Group C replicon previously described (Mello et al, Antimicrobial Agents and Chemotherapy, 2014) with the modification that the P1 region was replaced with the cDNA encoding Nanoluciferase (Promega Corporation, Madiso, Wis.) Compounds were serially diluted in DMSO in half-logarithmic steps starting from 5 mM. Of each dilution, 0.5 μL were transferred to the assay plates. H1-HeLa cells were trypsinized, washed twice with ice-cold OptiMem® Gibco, 31985), resuspended at 1.5×10^7 cells/ml in OptiMem®, and stored on ice. A total of 6×10^6 cells were electroporated (270 V, 950 μF, ∞ resistance) with 25 ng of in vitro-transcribed RNA and allowed to rest on ice for 10 min. Electroporated cells were then diluted DMEM supplemented with 0.1% BSA (Gibco, 15260), 1× penicillin/streptomycin solution (CellGro/Mediatech, Manassas, Va.; 30-002-CI) to a final concentration 4×10^5 cells/ml. 50 μl of cells were then added to the compounds then incubated for […] at 33° C. Luciferase signal was then measured after 48 h using the NanoGlo® Detection Kit Assay (Promega, N1150) according to the manufacturer's protocol and a POLARstar Omega Luminometer (BMG Labtech).

PC-3 = test: Cox/SDH ratio assay in PC-3 cells; assay type: cell-based; settings: Cellular assays (MP-Nuc); concentration giving Cox/SDH ratio <0.5, PC-3 cells

T1 sequence (O00411 42-1230): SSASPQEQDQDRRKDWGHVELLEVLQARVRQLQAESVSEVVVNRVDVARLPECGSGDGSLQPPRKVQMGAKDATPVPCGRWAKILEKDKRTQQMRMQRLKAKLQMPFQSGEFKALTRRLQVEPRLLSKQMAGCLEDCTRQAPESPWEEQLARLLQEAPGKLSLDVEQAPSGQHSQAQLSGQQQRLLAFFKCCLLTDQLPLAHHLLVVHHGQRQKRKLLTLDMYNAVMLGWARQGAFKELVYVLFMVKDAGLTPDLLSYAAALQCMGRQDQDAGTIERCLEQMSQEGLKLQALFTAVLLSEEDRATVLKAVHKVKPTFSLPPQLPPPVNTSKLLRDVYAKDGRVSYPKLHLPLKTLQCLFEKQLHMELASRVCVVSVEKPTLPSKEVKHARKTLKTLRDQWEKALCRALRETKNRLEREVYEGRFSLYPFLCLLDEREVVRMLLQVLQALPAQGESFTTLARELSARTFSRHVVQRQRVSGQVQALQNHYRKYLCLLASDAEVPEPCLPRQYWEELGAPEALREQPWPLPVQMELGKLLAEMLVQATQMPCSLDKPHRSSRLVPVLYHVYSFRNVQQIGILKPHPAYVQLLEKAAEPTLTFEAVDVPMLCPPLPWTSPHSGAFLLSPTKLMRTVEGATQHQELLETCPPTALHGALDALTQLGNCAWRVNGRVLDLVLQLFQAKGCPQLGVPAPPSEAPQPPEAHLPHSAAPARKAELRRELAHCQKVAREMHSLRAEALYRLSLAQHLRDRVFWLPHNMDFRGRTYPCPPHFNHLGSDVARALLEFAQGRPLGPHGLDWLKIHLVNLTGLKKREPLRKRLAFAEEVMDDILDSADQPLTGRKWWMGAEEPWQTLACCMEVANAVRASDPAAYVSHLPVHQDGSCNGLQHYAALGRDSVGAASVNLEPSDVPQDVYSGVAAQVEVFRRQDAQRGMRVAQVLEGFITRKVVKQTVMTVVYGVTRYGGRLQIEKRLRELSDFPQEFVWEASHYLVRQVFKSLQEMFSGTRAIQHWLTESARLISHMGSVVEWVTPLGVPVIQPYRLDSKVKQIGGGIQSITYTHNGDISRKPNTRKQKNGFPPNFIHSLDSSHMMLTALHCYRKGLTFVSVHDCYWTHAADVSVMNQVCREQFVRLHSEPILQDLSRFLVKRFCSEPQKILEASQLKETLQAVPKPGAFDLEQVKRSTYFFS

`C[C@@]1(F)[C@H](O)[C@@H](COP(=O)(O)OP(=O)(O)OP(=O)(O)O)O[C@H]1n1ccc(=O)[nH]c1=O` [Sofosbuvir TP, reference compound] was tested, and the “Human Mitochondrial RNA polymerase incorporation” value [1] was 1.9% (Sofosbuvir TP).
Compound `CC#C[C@]1(O)[C@H](n2ccc3c(N)ncnc32)O[C@](F)(COP(=O)(OCOC(=O)OC(C)C)OCOC(=O)OC(C)C)[C@H]1O` [Example 2, ((2S,3S,4R,5R)-5-(4-amino-7H-pyrrolo[2,3-d]pyrimidin-7-yl)-2-fluoro-3,4-dihydroxy-4-(prop-1-yn-1-yl)tetrahydrofuran-2-yl)methyl bis(((1-isopropoxycarbonyl)oxy)methyl) phosphate] has an EC50 (HRV16) of 0.6 µM, an EC50 (HRV86) of 0.4 µM and an EC50 (HRV39) of 0.6 µM. The EC50 (HRV10) was 0.8 µM, the EC50 (HRV14) was 0.7 µM and the EC50 (HRV29) was 0.7 µM. For the same compound, the EC50 (Chikungunya virus) was 1 µM, the “Cytotoxicity Assay Results: MT4” value (MT4) was >100 µM and the “Cytotoxicity Assay Results: PC3” value (PC3) was >200 µM. For the same compound, the “HepG2 Cox/SDH ratio <0.5” value (HepG2 [2]) was >200 µM, the EC50 (Dengue virus (PBMCs)) was 2.05 µM and the “Cytotoxicity Assay Results: K562” value (K562) was >100 µM. The “Cytotoxicity Assay Results: HepG2” value (HepG2 [3]) was >100 µM, the EC50 (HRV15 (c-type)) was 0.7 µM and the “PC-3 Cox/SDH ratio <0.5” value (PC-3) was >200 µM.
With `[N-]=[N+]=N[C@]1(CO)O[C@@H](n2ccc(N)nc2=O)[C@H](O)[C@@H]1O` [4′-Azido cytidine, 4′-azido-cytidine, reference compound] the “HepG2 Cox/SDH ratio <0.5” value (HepG2 [2]) was 200 µM and the “PC-3 Cox/SDH ratio <0.5” value (PC-3) was 25 µM.
`CC#C[C@]1(O)[C@H](n2ccc3c(N)ncnc32)O[C@](F)(COP(=O)(O)OP(=O)(O)OP(=O)(O)O)[C@H]1O` [Example 3] was tested, and the “Human Mitochondrial RNA polymerase incorporation” value [1] was 1.9% (Examples).
